{
  "source": "patent US6136803A",
  "about": "“Antidepressants” (Merrell Pharmaceuticals Inc., priority 1998, dated 2000)",
  "test_system": "-adrenergic receptors (rat cerebral cortical membranes)",
  "details": "desipramine 5 mg/kg, i.p.; for [3H]-DHA Specifically Bound: six animals per group, mean ± SEM; for % Control ([3H]-DHA specifically bound): vs saline",
  "note": "Like-named read-outs stand apart in the source and are kept apart here.",
  "protocol": "The number of -adrenergic receptors in rat cerebral cortical membranes was measured after a 4 day and 14 day course of one of the following treatments:\na) saline control (intraperitoneal injection - i.p.)\nc) fluoxetine (10 mg/kg/day, i.p.) or (10 mg/kg bid, i.p.)\nMale Sprague-Dawley rats (175-200 g) were assigned randomly to one of the four treatment groups above and were treated as indicated for either 4 or 14 days. The animals were sacrificed 24 hours after their last treatment and cerebral cortical membranes were isolated. These membranes were assayed for -adrenergic receptor number by the method of Bylund and Snyder [Mol. Pharmacol. 12, 568 (1976)] by measuring the amount of [^3 H]dihydro-alprenolol ([^3 H]-DHA) bound.",
  "data": [
    {"smiles": "CNCCC(Oc1ccc(C(F)(F)F)cc1)c1ccccc1", "note": "(stereo not shown) [Fluoxetine, fluoxetine]", "values": [
      {"measurement": "[3H]-DHA Specifically Bound", "setting": "A) 14 days, fluoxetine 10 mg/kg, saline control 41.8 ± 1.4, * p<0.05 vs saline, + P<0.05 vs desipramine", "value": "37.9 ± 1.8", "unit": "fmol/mg protein"},
      {"measurement": "% Control ([3H]-DHA specifically bound)", "setting": "A) 14 days, fluoxetine 10 mg/kg", "value": 91, "unit": "% Control"},
      {"measurement": "[3H]-DHA Specifically Bound", "setting": "B) 4 days, fluoxetine 10 mg/kg bid, saline control 54.6 ± 3.1, * p<0.05 vs saline", "value": "51.8 ± 1.7", "unit": "fmol/mg protein"},
      {"measurement": "% Control ([3H]-DHA specifically bound)", "setting": "B) 4 days, fluoxetine 10 mg/kg bid", "value": 95, "unit": "% Control"}
    ]}
  ]
}
